Data reported in patent US20040152735A1, “NO-synthase inhibitors comprising N,N'-bis(2-pyridyl)methyl-N,N'-bis(3,4,5-trimethoxybenzyl) ethylenediamine” (SOCIETE L'OREAL, S.A., priority 2001, published 2004).

Target: T1, inducible NO-synthase (NO-synthase 2) (Homo sapiens, UniProt P35228)
T1 construct: positive control (induction of the enzyme): mixtures of interferon-(1000 U/ml) and of interleukin 1-(100 U/ml); endogenous in cells; 267(30), 21277-21280, 1992
Assay: Inhibition of inducible NO-synthase (test of Heck et al.): nitrite/nitrate measured after stimulating NO-synthase 2 with interferon and interleukin 1
Format: cell-based
Procedure: The activity of N,N′-bis(2-pyridyl)methyl-N,N′-bis(3,4,5-trimethoxybenzyl)ethylenediamine on inducible NO-synthase was evaluated in the test described by Heck et al., (J.B.C., Vol. 267, No. 30, 21277-21280, Oct. 25, 1992).
The object of this test is to show the reduction in the concentration of nitrate and nitrite, ultimately, after stimulating NO-synthase 2.
The following controls were introduced into the tests:
A: positive control (induction of the enzyme): mixtures of interferon-(1000 U/ml) and of interleukin 1-(100 U/ml);
To determine the activity of the test product, the amount of stable NO reaction products (nitrites and nitrates) is measured using the “nitric calorimetric assay” kit marketed by Boehringer under the reference 1756.28.
N,N′-bis(2-pyridyl)methyl-N,N′-bis(3,4,5-trimethoxybenzyl) ethylenediamine was tested at concentrations of 10 μM, 50 μM and 100 μM in ethanol.

T1 sequence (P35228 whole entry, species assumed): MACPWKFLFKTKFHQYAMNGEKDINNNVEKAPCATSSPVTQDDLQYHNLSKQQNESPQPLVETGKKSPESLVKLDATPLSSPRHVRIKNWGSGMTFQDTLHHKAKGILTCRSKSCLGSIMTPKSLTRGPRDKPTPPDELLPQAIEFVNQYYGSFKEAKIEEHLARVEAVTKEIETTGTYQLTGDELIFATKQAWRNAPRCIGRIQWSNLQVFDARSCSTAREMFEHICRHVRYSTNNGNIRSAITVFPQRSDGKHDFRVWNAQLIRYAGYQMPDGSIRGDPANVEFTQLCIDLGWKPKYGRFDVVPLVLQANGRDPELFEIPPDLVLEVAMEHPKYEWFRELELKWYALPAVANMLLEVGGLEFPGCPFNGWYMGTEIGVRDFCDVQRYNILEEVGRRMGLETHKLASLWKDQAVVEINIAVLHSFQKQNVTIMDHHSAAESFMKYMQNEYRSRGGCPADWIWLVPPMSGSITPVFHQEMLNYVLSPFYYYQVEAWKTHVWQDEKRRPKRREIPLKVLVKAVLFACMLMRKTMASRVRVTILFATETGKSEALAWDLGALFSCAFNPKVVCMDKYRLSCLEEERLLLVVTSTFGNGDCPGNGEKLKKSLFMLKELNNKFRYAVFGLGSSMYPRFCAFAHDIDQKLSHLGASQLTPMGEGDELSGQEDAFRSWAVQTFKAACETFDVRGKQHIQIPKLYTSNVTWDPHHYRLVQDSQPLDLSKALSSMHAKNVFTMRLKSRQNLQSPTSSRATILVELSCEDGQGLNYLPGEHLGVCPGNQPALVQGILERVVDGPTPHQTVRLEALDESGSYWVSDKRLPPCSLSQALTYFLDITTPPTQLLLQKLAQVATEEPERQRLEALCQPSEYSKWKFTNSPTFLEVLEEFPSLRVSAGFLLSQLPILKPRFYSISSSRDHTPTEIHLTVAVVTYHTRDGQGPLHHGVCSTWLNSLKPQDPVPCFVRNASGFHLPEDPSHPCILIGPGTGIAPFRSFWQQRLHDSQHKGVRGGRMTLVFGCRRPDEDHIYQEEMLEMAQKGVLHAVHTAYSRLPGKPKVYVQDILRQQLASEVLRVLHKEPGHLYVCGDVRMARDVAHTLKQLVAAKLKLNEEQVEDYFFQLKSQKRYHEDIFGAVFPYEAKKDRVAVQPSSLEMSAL

In the case of `COc1cc(CN(CCN(Cc2cc(OC)c(OC)c(OC)c2)Cc2ccccn2)Cc2ccccn2)cc(OC)c1OC` [N,N′-bis(2-pyridyl)methyl-N,N′-bis(3,4,5-trimethoxybenzyl)ethylenediamine], the inhibition at 10 µM (10 μM in ethanol, nitrites and nitrates after induction with interferon (1000 U/ml) and interleukin 1 (100 U/ml)) is reported as 18.8%, the inhibition at 50 µM (50 μM in ethanol, nitrites and nitrates after induction with interferon (1000 U/ml) and interleukin 1 (100 U/ml)) is reported as 48.3% and the inhibition at 100 µM (100 μM in ethanol, nitrites and nitrates after induction with interferon (1000 U/ml) and interleukin 1 (100 U/ml)) is reported as 62%. For the same molecule, the “effect on inducible NO-synthase (in words)” value (conclusion from the test at 10-100 μM) was “has an inhibitory effect on inducible NO-synthase”.
